Where “and” joins values, the source holds several entries; their conditions need not be identical. Identical values can stand only once.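 Results reflect a 48-hour exposure of cells in 96-well plates to compound at five concentrations. At the GI50, growth is halved. The concentration for full growth arrest is given as TGI.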
Tests used:
Assay in all cases: NCI-60 cell line screen, 48 h
[1] = tested on: NCI-H23 lung
[2] = tested on: M14 melanoma
[3] = tested on: HCT-15 colon
[4] = tested on: K-562 leukemia
[5] = tested on: OVCAR-8 ovarian
[6] = tested on: UO-31 renal
[7] = tested on: SNB-19 CNS
[8] = tested on: EKVX NSCLC
[9] = tested on: MDA-MB-231 breast
[10] = tested on: DU-145 prostate

SMILES	GI50 [1]	TGI [1]	GI50 [2]	TGI [2]	GI50 [3]	TGI [3]	GI50 [4]	TGI [4]	GI50 [5]	TGI [5]	GI50 [6]	TGI [6]	GI50 [7]	TGI [7]	GI50 [8]	TGI [8]	GI50 [9]	TGI [9]	GI50 [10]	TGI [10]
CC(=O)[CH-]C(=O)c1ccccc1.CC(=O)[CH-]C(=O)c1ccccc1.CC(=O)[CH-]C(=O)c1ccccc1.[Tl+3]	45.4 µM	> 100 µM	24.7 µM	> 93 µM	41.7 µM	> 100 µM	2.32 µM	> 100 µM	59.3 µM	> 100 µM	30.2 µM	> 100 µM	95.2 µM	> 100 µM	31.8 µM	> 100 µM	–	–	–	–
COc1ccc2c([nH]c3cc(O)c(C)cc32)c1C=O	–	–	–	> 25 µM	–	> 25 µM	–	> 25 µM	–	> 25 µM	–	> 25 µM	–	> 25 µM	–	–	–	–	–	–
CN(C)CC(/C(Cc1ccccc1)=N\NC(=O)c1ccncc1)c1ccccc1 (centres undefined)	–	> 100 µM	–	> 100 µM	–	–	–	> 100 µM	–	> 100 µM	–	–	–	> 100 µM	–	68.1 µM	–	–	–	–
Nc1nc(Nc2ccc3c(c2)CC[C@@H](N2CCCC2)CC3)nn1-c1cc2c(nn1)-c1ccccc1CCC2	1.72 µM	3.56 µM	1.43 µM	3 µM	0.798 µM	2.26 µM	–	–	–	–	0.936 µM	2.19 µM	1.83 µM	3.45 µM	1.68 µM	3.29 µM	1.82 µM	3.55 µM	1.35 µM	3 µM
Cc1ncc([N+](=O)[O-])n1CCNS(=O)(=O)CCCn1ccnc1[N+](=O)[O-]	–	> 100 µM	–	> 100 µM	–	> 100 µM	–	> 100 µM	–	> 100 µM	–	> 100 µM	–	–	–	> 100 µM	–	> 100 µM	–	> 100 µM
Nc1ccccc1/C=C\c1ccccc1	–	> 100 µM	–	> 100 µM	–	> 100 µM	–	> 100 µM	–	> 100 µM	–	> 100 µM	–	> 100 µM	–	> 100 µM	–	–	–	> 100 µM
C1CNCCNCCNCCN1	–	> 100 µM	–	> 100 µM	–	–	–	> 100 µM	–	> 100 µM	–	> 100 µM	–	> 100 µM	–	> 100 µM	–	–	–	–
O=C1CCCCCCCCCCC(=O)C2CCOCCOCCOCCC1Cc1cccc(n1)C2	–	> 100 µM	–	> 100 µM	–	> 100 µM	–	> 100 µM	–	> 100 µM	–	> 100 µM	–	> 100 µM	–	> 100 µM	–	–	–	–
N/N=C(\CC1OC(=O)c2ccccc21)c1ccco1 (centres undefined)	–	> 100 µM	–	> 100 µM	–	> 100 µM	–	> 100 µM	–	–	–	> 100 µM	–	> 100 µM	–	> 100 µM	–	–	–	–
Cc1cccc(C)c1NC(=O)CCCC(=O)CC(=O)/C=C/c1ccccc1	–	> 100 µM	–	> 100 µM	–	> 100 µM	–	> 100 µM	–	> 100 µM	–	> 100 µM	–	> 100 µM	–	–	–	–	–	–
O=C(CNC(=O)OCc1ccccc1)Oc1ccccc1	–	> 100 µM	–	> 100 µM	–	> 100 µM	–	> 100 µM	–	> 100 µM	–	> 100 µM	–	> 42.7 µM	–	> 100 µM	–	–	–	–
CCOc1cc2c(cnc3c4cc(OC)c(OC)cc4ccc23)cc1OC	–	> 100 µM	–	> 100 µM	–	> 100 µM	–	> 100 µM	–	> 100 µM	–	> 100 µM	–	> 100 µM	–	> 100 µM	–	–	–	–
CC(C)(C)C(=O)Nc1ccccc1I(=O)=O	> 100 µM	> 100 µM	–	–	> 100 µM	> 100 µM	> 100 µM	> 100 µM	> 100 µM	> 100 µM	> 100 µM	> 100 µM	> 100 µM	> 100 µM	> 100 µM	> 100 µM	> 100 µM	> 100 µM	> 100 µM	> 100 µM
O=C(Nc1ccc(-n2cc(-c3ccncc3)c(-c3ccc(Cl)c(O)c3)n2)cc1)Nc1cc(C(F)(F)F)cc(C(F)(F)F)c1	2.13 µM	4.91 µM	1.76 µM	3.56 µM	1.9 µM	4.3 µM	–	–	1.99 µM	5.48 µM	1.55 µM	3.93 µM	3.01 µM	9.97 µM	1.97 µM	5.51 µM	2.11 µM	4.93 µM	1.78 µM	3.34 µM
O=C(c1cc(F)c(Cl)cc1Cl)N1N=C(c2ccccc2)CC1(O)c1ccccc1 (centres undefined)	20.2 µM	48.2 µM	–	–	13.8 µM	28.3 µM	12.2 µM	27.2 µM	25.5 µM	72.4 µM	15.7 µM	30.1 µM	29.2 µM	93.7 µM	19.2 µM	65.5 µM	15.7 µM	33.3 µM	17.3 µM	35.9 µM
COc1ccc2c(c1)nc(N)c1c3cc(OC)c(OC)cc3cn21	–	5.7 µM	–	–	< 0.01 µM	13.3 µM	< 0.01 µM	11.7 µM	0.123 µM	13.6 µM	2.51 µM	20.5 µM	0.0967 µM	19.1 µM	1.81 µM	22 µM	0.345 µM	17.4 µM	–	8.63 µM
S=c1[nH]c(=S)c2sc(=S)n(-c3ccccc3)c2[nH]1	–	> 100 µM	–	> 100 µM	–	> 100 µM	–	> 100 µM	–	> 100 µM	–	> 100 µM	–	> 100 µM	–	> 100 µM	–	–	–	–
CC1Cc2c(N)nc(NN)nc2NC1=O (centres undefined)	–	> 100 µM	–	> 100 µM	–	> 100 µM	–	> 100 µM	–	> 100 µM	–	> 100 µM	–	> 100 µM	–	> 100 µM	–	–	–	–
CC(=O)OCC1OC(OC2CC3C(C)(C)C(OC(C)=O)CC[C@]3(C)C3CCC45CC4(CC[C@H]5C(C)CC(O)[C@@H](O)C(C)(C)O)[C@]23C)C(O)C(O)C1O (some centres undefined)	13.5 µM	14.9 µM and 26.3 µM	4.97 µM	13.1 µM and 16.6 µM	12 µM	14 µM and 24.3 µM	3.47 µM	13.8 µM and 18.7 µM	8.43 µM	13.9 µM and 22.5 µM	18.5 µM	12.3 µM and 32.5 µM	4.35 µM	13.2 µM and 14.8 µM	15.8 µM	13.1 µM and 29.2 µM	–	–	–	–
